{"source": "patent US20120148649A1", "about": "“COMPOSITION FOR RESTORATION OF AGE RELATED TISSUE IN THE FACE OR SELECTED AREAS OF THE BODY” (priority 2004, published 2012)", "origin": "cited, not measured here", "key": {"[1]": {"tested_on": "tumor growth", "details": "deuterium concentration from 0.1 to 110 ppm; animal model studies"}, "[2]": {"tested_on": "cancer patients", "details": "human clinical trials, hundreds of cancer patients"}}}
{"substance": "deuterium depleted water", "values": [{"measurement": "effect on tumor growth", "setting": "[1]", "result": "inhibits tumor growth"}, {"measurement": "effect on life span of cancer patients", "setting": "[2]", "result": "extended life span"}]}
